Reference: patent publication EP4274570B1, “ACTIVATORS OF THE BMP/SMAD AXIS FOR USE IN TREATING AND/OR PREVENTING MUSCLE ATROPHY” (Università Degli Studi Di Torino, priority 2021, dated 2022)

Legend:
C2C12 myotubes [1] = assay: Measurement of C2C12 myotube diameters; type: cell-based, murine; details: for C26 CM-induced atrophy (myotube diameter): 10% C26 conditioned medium, FK506 1µg/mL or siFKBP12 transfection; for hypertrophy (myotube diameter): BMP6 1ng/mL as positive control
Experimental: When the confluence of 80-90% is reached, they are differentiated into myotubes in DMEM/2% HS medium for 4 days.
For the signaling experiments, two hours prior to treatment, the DMEM differentiation medium without serum was changed, followed by 1h of treatment with FK506 (1 µg/mL) or BMP6 (30ng/mL).
The myotubes were analyzed 48h after transfection to establish the diameters and lysates for RNA extraction.
Photographs of the myotubes were taken using 20X magnification bright field microscopy (Zeiss) and their diameter was measured using FIJI software.

tibialis anterior = details: mice treated for 9 days; cited from earlier work
SMAD1/5 = assay: Western blot of SMAD1/5 phosphorylation in C2C12 myotubes; type: cell-based, murine; details: FK506 1µg/mL
Experimental: (§1) The myotubes were treated with 10% C26 conditioned medium (C26 CM (9)) or Activin A (1ng/mL R&D # 338-AC), FK506 (1µg/mL Cayman Chemical, #10007965), BMP6 (1ng/mL R&D Systems, 6325-BM), cyclosporine A (1µM Tocris Biosciences #1101), DMH1 (5µM CAS No 1206711-16-1) or with DMEM/2%HS (CTR) differentiation medium for 24h to measure their diameter. For the signaling experiments, two hours prior to treatment, the DMEM differentiation medium without serum was changed, followed by 1h of treatment with FK506 (1 µg/mL) or BMP6 (30ng/mL). The protein ubiquitination flow was measured by treating in C2C12 myotubes with FK506 1µg/mL, Activin A 1ng/mL (ACTA), and the combination of the two, with and without MG132 proteasome inhibitor (Senta Cruz Biotechnology, SC-351846), 1µM for 1h.
(§2) C2C12 myotubes were lysed in RIPA lysis buffer (150mM NaCl, 50mM Tris-HCl, 0.5% sodium deoxycholate, 1.0% Triton X-100, 0.1% SDS, and 1mM EDTA) with protease and phosphatase inhibitors (Roche, #0490837001, #11697498001). The protein concentration was determined using the BCA assay (Thermo Fisher Scientific). 15µg of proteins from cell lysates were loaded for performing SDS-PAGE, then transferred onto PVDF membrane for immunoblotting analysis. The primary antibodies used are: SMAD1 (Cell Signaling, #9743), P-SMAD1/5 (Cell Signaling, #13820T), vinculin (Cell Signaling #4650), ubiquitin (Abcam, #7780).

[2] = system: pGL3-BMP responsive element (BRE)-Luc; assay: Luciferase assay with pGL3-BMP responsive element (BRE)-Luc reporter in C2C12 myoblasts; type: cell-based, murine; details: FK506 1µg/mL, 5h, compared with BMP6 1ng/mL
Experimental: C2C12 myoblasts were transfected with the pGL3-BMP responsive element (BRE)-Luc plasmid (Addgene #45126) to measure the promoter activation by the SMAD1/5/8 proteins. The cells were treated with FK506 (1µg/mL) or BMP6 (1ng/mL) 15h posttransfection. The luminescence was measured using Dual-Luciferase Reporter Assay System (Promega) after 5h of treatment according to the manufacturer's instructions.

C2C12 myotubes [3] = assay: Protein ubiquitination flow after proteasome inhibition (MG132) in C2C12 myotubes; type: cell-based, murine; details: FK506 1µg/mL plus Activin A 1ng/mL, with and without MG132 1µM, 1h
Experimental: as §1, §2

[4] = system: Colon-26 (C26) murine tumor cachexia model; assay: Colon-26 (C26) tumor cachexia model, oral treatment; type: in vivo; details: C26 mice, FK506 0.02 mg/Kg daily oral
Experimental: (§3) FK506 (Cayman Chemical, #10007965) was dissolved in DMSO (5mg/mL) and then diluted in a 5% glucose and water solution for oral administration in order to reach the final concentration of 0.02mg/kg. All the mice were subjected to one day of treatment, prior to inoculation of colon-26 (C26) adenocarcinoma cells into the right flank of three-month-old Balb C females (Charles River #028) (0.7x10^6 cells/mouse). All the mice were treated daily with FK506 (0.02 mg/Kg) or 5% glucose buffer DMSO vehicle.
Maximum muscle strength was measured on the day of inoculation (day 0) and the day of sacrifice (day 11) using the Grip Strength Test (Bioseb).
(§4) The gastrocnemii, tumors, and subcutaneous and inguinal adipose tissue were isolated, weighed, and normalized for the tibia length of each mouse.
The fresh gastrocnemii were frozen in liquid nitrogen-cooled isopentane and stored at -80°C. 7µm cross-sections were performed using a cryostat. Immunofluorescence was performed by securing the tissues in 4% PFA, blocking with […] in PBS before incubating with the primary antibody for laminin (sc-59854), and with the secondaries (ALEXA488) and DAPI (Abcam 228549). The photographs were taken with a fluorescence microscope to evaluate the cross-sectional area of the fibers.
The total RNA from the frozen tissues was extracted with TRIzol reagent (Invitrogen) following the manufacturer's instructions. 0.5-1µg of total RNA were retrotranscribed using High Capacity cDNA Reverse Transcriptase kit (Applied Biosystems). The cDNA was analyzed with Real Time Quantitative PCR (ABI PRISM 7900HT FAST Real-Time PCR system, Applied Biosystems) using Luna Universal Probe qPCR master mix (Nebb) and Universal Probe Library system (Roche Applied Science). The relative mRNA levels were calculated using the 2-ΔΔCT method and normalizing for the GAPDH levels. The following primers were used: Atrogin1 F: 5'-[…]-3' (SEQ ID No. 1), R: 5' […]-3' (SEQ ID No. 2); Murf1 F: 5'[…]-3' (SEQ ID No. 3), R: 5'-tcgtcttcgtgttccttgc-3' (SEQ ID No. 4); Musa1 F: 5'-gagaagccagggtttgagc-3' (SEQ ID No. 5), R: 5'-[…]-3' (SEQ ID No. 6); Cathepsin L F: 5'-[…]-3' (SEQ ID No. 7), R: 5'-[…]-3' (SEQ ID No. 8); FKBP12 F: 5'-atgggagtgcaggtggag-3' (SEQ ID No. 9), R: 5'-[…]-3' (SEQ ID No. 10). GAPDH F: 5'-[…]-3' (SEQ ID No. 11), R: 5'-[…]-3' (SEQ ID No. 12).

immune populations = assay: FACS of immune populations in blood, spleens and tumors of C26 mice; type: in vivo; details: FK506 0.02 mg/Kg daily oral
Experimental: The blood was extracted and incubated with erythrocyte lysis buffer for 10 minutes at room temperature. After washing with PBS, the cells were collected, incubated with Fc-receptor blocker (anti-CD16/CD32 antibody, BD Bioscience #101302) and stained for 30 minutes at 4°C with the antibodies.
The primary tumors were extracted, crushed, and digested with collagenase IV (1mg/mL) (Sigma Aldrich #C4-28) in RPMI-1640 at 37°C for 1h. After washing the tissues with RPMI-1640/10% FBS, the suspension was passed through a 70-µm pore filter, centrifuged at 1400rpm for 10 minutes and incubated with the erythrocyte lysis buffer (155 mM NH4Cl, 15.8 mM Na2CO3, 1 mM EDTA, pH 7.3) for 10 minutes at room temperature. After washing with RPMI-1640/10% FBS, 1 million cells were resuspended in PBS, treated with Fc-receptor blocker (anti-CD16/CD32 antibody, BD Bioscience #101302) and stained for 30 minutes at 4°C with the antibodies.

Balb C mice = assay: Hypertrophy experiment in Balb C mice without tumor, oral treatment; type: in vivo
Experimental: as §3, §4
4-month-old Balb C females were treated orally every day for 4 weeks (5 days per week), with 0.02mg/Kg/day FK506 in 5% glucose solution or with vehicle (CTR). The maximum strength was measured weekly with the Grip Strength Test.

[5] = system: post-transplant diabetes mellitus rats; details: 1 mg/kg/d; cited from earlier work
[6] = system: BMP-SMAD1/5/8 signaling pathway; details: hepatocytes; cited from earlier work

CC(C)Oc1ccc(-c2cnc3c(-c4ccnc5ccccc45)cnn3c2)cc1 [DMH1]
effect of DMH1 on tacrolimus-induced hypertrophy and protection from C26 CM-induced atrophy (myotube diameter) (C2C12 myotubes [1]; DMH1 5µM, FK506 1µg/mL, 10% C26 CM, 24h): nullifies both the hypertrophic effect of tacrolimus and the protection of C26 (C26 CM) tumor medium-induced atrophy

c1ccc2c(-c3cnn4cc(-c5ccc(N6CCNCC6)cc5)cnc34)ccnc2c1 [LDN-193189]
atrophy in the myofibers of the tibialis anterior (tibialis anterior): 21% | baseline phosphorylation levels of Smad1/5/8 (tibialis anterior): reduction in baseline phosphorylation levels of Smad1/5/8

C=CC[C@@H]1/C=C(\C)C[C@H](C)C[C@H](OC)[C@H]2O[C@@](O)(C(=O)C(=O)N3CCCC[C@H]3C(=O)O[C@H](/C(C)=C/[C@@H]3CC[C@@H](O)[C@H](OC)C3)[C@H](C)[C@@H](O)CC1=O)[C@H](C)C[C@@H]2OC [tacrolimus]
C26 CM-induced atrophy (myotube diameter) (C2C12 myotubes [1]; 24h, listed as FK506): capable of preventing C26 CM-induced atrophy | C26 CM-induced atrophy (myotube diameter) (C2C12 myotubes [1]; 24h, listed as Tacrolimus): capable of preventing | hypertrophy (myotube diameter) (C2C12 myotubes [1]; FK506 1µg/mL, 24h, listed as FK506): capable of inducing significant hypertrophy | hypertrophy (myotube diameter) (C2C12 myotubes [1]; FK506 1µg/mL, 24h, listed as Tacrolimus): induces levels of hypertrophy comparable to BMP6 | ACTA-induced atrophy (myotube diameter) (C2C12 myotubes [1]; FK506 1µg/mL, Activin A 1ng/mL, 24h): capable of preventing | effect of tacrolimus on myotube diameter under ALK2 silencing (C2C12 myotubes [1]; siALK2-transfected C2C12 myotubes, FK506 1µg/mL): nullifies the effect of tacrolimus | phosphorylation levels of SMAD1/5 (SMAD1/5; 1h, without stimulation by any extracellular ligand): capable of increasing the phosphorylation levels of SMAD1/5 | effect of tacrolimus on phosphorylation of the Smad1/5/8 proteins under ALK2 silencing (SMAD1/5; siALK2-transfected C2C12 myotubes): nullifies the effect of tacrolimus | BRE-Luc reporter activation [2]: capable of exceeding the BMP6 positive control in reporter activation | ACTA-induced increase in protein ubiquitination (C2C12 myotubes [3]): completely reversed | body weight loss ([4]; 11 days): capable of preventing | fat loss (subcutaneous and inguinal adipose tissue) ([4]; 11 days): capable of preventing | weight of the tumor ([4]; at sacrifice): without altering the weight of the tumor | maximum muscle strength (Grip Strength test) ([4]; end of the experiment (day 11)): increased maximum muscle strength | expression of atrogens (Atrogin 1, MuRF-1, Musa1, Cathepsin L mRNA) in the gastrocnemii ([4]; normalized for GAPDH): reduced expression of all the atrogens | muscle atrophy in terms of muscle fiber diameter ([4]; gastrocnemius cross-section): capable of preventing muscle atrophy | muscle atrophy in terms of skeletal muscle weight ([4]; gastrocnemius weight normalized for tibia length): capable of preventing muscle atrophy | amount and state of activation of the main immune populations (immune populations): has no effect on these parameters | maximum muscle strength (Grip Strength test) (Balb C mice; 0.02mg/Kg/day oral, 4 weeks, day 29, versus vehicle (CTR)): significantly increases maximum muscle strength | muscle mass (Balb C mice; oral non-immunosuppressive doses, 11 days): capable of increasing the mass of the quadriceps | muscle atrophy at high immunosuppressive doses [5]: induces muscle atrophy | phosphorylation of SMAD 1/5/8 proteins [6]: increasing the phosphorylation of SMAD 1/5/8 proteins | transcription of their epcidin target [6]: increasing
